Measured values published in ChEMBL document CHEMBL4627246, “Pyroglutamide-Based P2X7 Receptor Antagonists Targeting Inflammatory Bowel Disease” (J Med Chem, 2020).

System: A549
Experiment: Cytotoxicity against human A549/ATCC cells assessed as effect on cell growth at 10 uM incubated for 48 hrs by sulforhodamine B assay
Format: cell-based
Settings: a549, 48 h

**Q.** Which Activity does the source give for `O=C(NCc1ccccc1)[C@@H]1CCC(=O)N1Cc1ccc(Cl)cc1Cl` here?
**A.** Non-Toxic

**Q.** How did the Activity turn out when `O=C(NCc1ccccc1Cl)[C@@H]1CCC(=O)N1Cc1ccccc1Cl` was run?
**A.** Non-Toxic

**Q.** `O=C(NCc1ccccc1Cl)[C@@H]1CCC(=O)N1c1ccccc1` was tested. Which Activity did it give?
**A.** Non-Toxic

System: SR
Experiment: Cytotoxicity against human SR cells assessed as effect on cell growth at 10 uM incubated for 48 hrs by sulforhodamine B assay
Format: cell-based
Settings: not given

**Q.** `O=C(NCc1ccccc1)[C@@H]1CCC(=O)N1Cc1ccc(Cl)cc1Cl` was tested. Which Activity did it give?
**A.** Non-Toxic

**Q.** With `O=C(NCc1ccccc1Cl)[C@@H]1CCC(=O)N1Cc1ccccc1Cl` as the compound, how does the Activity read?
**A.** Non-Toxic

**Q.** How did the Activity turn out when `O=C(NCc1ccccc1Cl)[C@@H]1CCC(=O)N1c1ccccc1` was run?
**A.** Non-Toxic

System: RPMI-8226
Experiment: Cytotoxicity against human RPMI8226 cells assessed as effect on cell growth at 10 uM incubated for 48 hrs by sulforhodamine B assay
Format: cell-based
Settings: rpmi-8226, 48 h

**Q.** For `O=C(NCc1ccccc1)[C@@H]1CCC(=O)N1Cc1ccc(Cl)cc1Cl`, which Activity is on record?
**A.** Non-Toxic

**Q.** How did the Activity turn out when `O=C(NCc1ccccc1Cl)[C@@H]1CCC(=O)N1Cc1ccccc1Cl` was run?
**A.** Non-Toxic

**Q.** `O=C(NCc1ccccc1Cl)[C@@H]1CCC(=O)N1c1ccccc1` was tested. Which Activity did it give?
**A.** Non-Toxic

System: MOLT-4
Experiment: Cytotoxicity against human MOLT4 cells assessed as effect on cell growth at 10 uM incubated for 48 hrs by sulforhodamine B assay
Format: cell-based
Settings: molt-4, 48 h

**Q.** Which Activity does the source give for `O=C(NCc1ccccc1)[C@@H]1CCC(=O)N1Cc1ccc(Cl)cc1Cl` here?
**A.** Non-Toxic

**Q.** How did the Activity turn out when `O=C(NCc1ccccc1Cl)[C@@H]1CCC(=O)N1Cc1ccccc1Cl` was run?
**A.** Non-Toxic

**Q.** How did the Activity turn out when `O=C(NCc1ccccc1Cl)[C@@H]1CCC(=O)N1c1ccccc1` was run?
**A.** Non-Toxic

System: EKVX
Experiment: Cytotoxicity against human EKVX cells assessed as effect on cell growth at 10 uM incubated for 48 hrs by sulforhodamine B assay
Format: cell-based
Settings: not given

**Q.** Which Activity does the source give for `O=C(NCc1ccccc1)[C@@H]1CCC(=O)N1Cc1ccc(Cl)cc1Cl` here?
**A.** Non-Toxic

**Q.** Which Activity does the source give for `O=C(NCc1ccccc1Cl)[C@@H]1CCC(=O)N1Cc1ccccc1Cl` here?
**A.** Non-Toxic

**Q.** Which Activity does the source give for `O=C(NCc1ccccc1Cl)[C@@H]1CCC(=O)N1c1ccccc1` here?
**A.** Non-Toxic

System: HL-60(TB)
Experiment: Cytotoxicity against human HL-60(TB) cells assessed as effect on cell growth at 10 uM incubated for 48 hrs by sulforhodamine B assay
Format: cell-based
Settings: not given

**Q.** For `O=C(NCc1ccccc1)[C@@H]1CCC(=O)N1Cc1ccc(Cl)cc1Cl`, which Activity is on record?
**A.** Non-Toxic

**Q.** How did the Activity turn out when `O=C(NCc1ccccc1Cl)[C@@H]1CCC(=O)N1Cc1ccccc1Cl` was run?
**A.** Non-Toxic

**Q.** With `O=C(NCc1ccccc1Cl)[C@@H]1CCC(=O)N1c1ccccc1` as the compound, how does the Activity read?
**A.** Non-Toxic

System: NCI-H460
Experiment: Cytotoxicity against human NCI-H460 cells assessed as effect on cell growth at 10 uM incubated for 48 hrs by sulforhodamine B assay
Format: cell-based
Settings: nci-h460, 48 h

**Q.** `O=C(NCc1ccccc1)[C@@H]1CCC(=O)N1Cc1ccc(Cl)cc1Cl` was tested. Which Activity did it give?
**A.** Non-Toxic

**Q.** For `O=C(NCc1ccccc1Cl)[C@@H]1CCC(=O)N1Cc1ccccc1Cl`, which Activity is on record?
**A.** Non-Toxic

**Q.** How did the Activity turn out when `O=C(NCc1ccccc1Cl)[C@@H]1CCC(=O)N1c1ccccc1` was run?
**A.** Non-Toxic

System: HCT-15
Experiment: Cytotoxicity against human HCT15 cells assessed as effect on cell growth at 10 uM incubated for 48 hrs by sulforhodamine B assay
Format: cell-based
Settings: hct-15, 48 h

**Q.** Which Activity does the source give for `O=C(NCc1ccccc1)[C@@H]1CCC(=O)N1Cc1ccc(Cl)cc1Cl` here?
**A.** Non-Toxic

**Q.** How did the Activity turn out when `O=C(NCc1ccccc1Cl)[C@@H]1CCC(=O)N1Cc1ccccc1Cl` was run?
**A.** Non-Toxic

**Q.** `O=C(NCc1ccccc1Cl)[C@@H]1CCC(=O)N1c1ccccc1` was tested. Which Activity did it give?
**A.** Non-Toxic

System: KM12
Experiment: Cytotoxicity against human KM12 cells assessed as effect on cell growth at 10 uM incubated for 48 hrs by sulforhodamine B assay
Format: cell-based
Settings: km12, 48 h

**Q.** With `O=C(NCc1ccccc1)[C@@H]1CCC(=O)N1Cc1ccc(Cl)cc1Cl` as the compound, how does the Activity read?
**A.** Non-Toxic

**Q.** Which Activity does the source give for `O=C(NCc1ccccc1Cl)[C@@H]1CCC(=O)N1Cc1ccccc1Cl` here?
**A.** Non-Toxic

**Q.** `O=C(NCc1ccccc1Cl)[C@@H]1CCC(=O)N1c1ccccc1` was tested. Which Activity did it give?
**A.** Non-Toxic

System: SW-620
Experiment: Cytotoxicity against human SW620 cells assessed as effect on cell growth at 10 uM incubated for 48 hrs by sulforhodamine B assay
Format: cell-based
Settings: sw-620, 48 h

**Q.** Which Activity does the source give for `O=C(NCc1ccccc1)[C@@H]1CCC(=O)N1Cc1ccc(Cl)cc1Cl` here?
**A.** Non-Toxic

**Q.** `O=C(NCc1ccccc1Cl)[C@@H]1CCC(=O)N1Cc1ccccc1Cl` was tested. Which Activity did it give?
**A.** Non-Toxic

**Q.** `O=C(NCc1ccccc1Cl)[C@@H]1CCC(=O)N1c1ccccc1` was tested. Which Activity did it give?
**A.** Non-Toxic

System: SF-295
Experiment: Cytotoxicity against human SF295 cells assessed as effect on cell growth at 10 uM incubated for 48 hrs by sulforhodamine B assay
Format: cell-based
Settings: sf-295, 48 h

**Q.** `O=C(NCc1ccccc1)[C@@H]1CCC(=O)N1Cc1ccc(Cl)cc1Cl` was tested. Which Activity did it give?
**A.** Non-Toxic

**Q.** `O=C(NCc1ccccc1Cl)[C@@H]1CCC(=O)N1Cc1ccccc1Cl` was tested. Which Activity did it give?
**A.** Non-Toxic

**Q.** Which Activity does the source give for `O=C(NCc1ccccc1Cl)[C@@H]1CCC(=O)N1c1ccccc1` here?
**A.** Non-Toxic

System: SF-539
Experiment: Cytotoxicity against human SF539 cells assessed as effect on cell growth at 10 uM incubated for 48 hrs by sulforhodamine B assay
Format: cell-based
Settings: sf-539, 48 h

**Q.** How did the Activity turn out when `O=C(NCc1ccccc1)[C@@H]1CCC(=O)N1Cc1ccc(Cl)cc1Cl` was run?
**A.** Non-Toxic

**Q.** With `O=C(NCc1ccccc1Cl)[C@@H]1CCC(=O)N1Cc1ccccc1Cl` as the compound, how does the Activity read?
**A.** Non-Toxic

**Q.** With `O=C(NCc1ccccc1Cl)[C@@H]1CCC(=O)N1c1ccccc1` as the compound, how does the Activity read?
**A.** Non-Toxic

System: M14
Experiment: Cytotoxicity against human M14 cells assessed as effect on cell growth at 10 uM incubated for 48 hrs by sulforhodamine B assay
Format: cell-based
Settings: m14, 48 h

**Q.** With `O=C(NCc1ccccc1)[C@@H]1CCC(=O)N1Cc1ccc(Cl)cc1Cl` as the compound, how does the Activity read?
**A.** Non-Toxic

**Q.** For `O=C(NCc1ccccc1Cl)[C@@H]1CCC(=O)N1Cc1ccccc1Cl`, which Activity is on record?
**A.** Non-Toxic

**Q.** How did the Activity turn out when `O=C(NCc1ccccc1Cl)[C@@H]1CCC(=O)N1c1ccccc1` was run?
**A.** Non-Toxic

System: OVCAR-5
Experiment: Cytotoxicity against human OVCAR5 cells assessed as effect on cell growth at 10 uM incubated for 48 hrs by sulforhodamine B assay
Format: cell-based
Settings: ovcar-5, 48 h

**Q.** Which Activity does the source give for `O=C(NCc1ccccc1)[C@@H]1CCC(=O)N1Cc1ccc(Cl)cc1Cl` here?
**A.** Non-Toxic

**Q.** `O=C(NCc1ccccc1Cl)[C@@H]1CCC(=O)N1Cc1ccccc1Cl` was tested. Which Activity did it give?
**A.** Non-Toxic

**Q.** Which Activity does the source give for `O=C(NCc1ccccc1Cl)[C@@H]1CCC(=O)N1c1ccccc1` here?
**A.** Non-Toxic

System: SK-OV-3
Experiment: Cytotoxicity against human SKOV3 cells assessed as effect on cell growth at 10 uM incubated for 48 hrs by sulforhodamine B assay
Format: cell-based
Settings: sk-ov-3, 48 h

**Q.** Which Activity does the source give for `O=C(NCc1ccccc1)[C@@H]1CCC(=O)N1Cc1ccc(Cl)cc1Cl` here?
**A.** Non-Toxic

**Q.** Which Activity does the source give for `O=C(NCc1ccccc1Cl)[C@@H]1CCC(=O)N1Cc1ccccc1Cl` here?
**A.** Non-Toxic

**Q.** For `O=C(NCc1ccccc1Cl)[C@@H]1CCC(=O)N1c1ccccc1`, which Activity is on record?
**A.** Non-Toxic

System: 786-0
Experiment: Cytotoxicity against human 786-0 cells assessed as effect on cell growth at 10 uM incubated for 48 hrs by sulforhodamine B assay
Format: cell-based
Settings: 786-0, 48 h

**Q.** Which Activity does the source give for `O=C(NCc1ccccc1)[C@@H]1CCC(=O)N1Cc1ccc(Cl)cc1Cl` here?
**A.** Non-Toxic

**Q.** Which Activity does the source give for `O=C(NCc1ccccc1Cl)[C@@H]1CCC(=O)N1Cc1ccccc1Cl` here?
**A.** Non-Toxic

**Q.** Which Activity does the source give for `O=C(NCc1ccccc1Cl)[C@@H]1CCC(=O)N1c1ccccc1` here?
**A.** Non-Toxic

System: A498
Experiment: Cytotoxicity against human A498 cells assessed as effect on cell growth at 10 uM incubated for 48 hrs by sulforhodamine B assay
Format: cell-based
Settings: a498, 48 h

**Q.** `O=C(NCc1ccccc1)[C@@H]1CCC(=O)N1Cc1ccc(Cl)cc1Cl` was tested. Which Activity did it give?
**A.** Non-Toxic

**Q.** Which Activity does the source give for `O=C(NCc1ccccc1Cl)[C@@H]1CCC(=O)N1Cc1ccccc1Cl` here?
**A.** Non-Toxic

**Q.** For `O=C(NCc1ccccc1Cl)[C@@H]1CCC(=O)N1c1ccccc1`, which Activity is on record?
**A.** Non-Toxic

System: ACHN
Experiment: Cytotoxicity against human ACHN cells assessed as effect on cell growth at 10 uM incubated for 48 hrs by sulforhodamine B assay
Format: cell-based
Settings: not given

**Q.** How did the Activity turn out when `O=C(NCc1ccccc1)[C@@H]1CCC(=O)N1Cc1ccc(Cl)cc1Cl` was run?
**A.** Non-Toxic

**Q.** How did the Activity turn out when `O=C(NCc1ccccc1Cl)[C@@H]1CCC(=O)N1Cc1ccccc1Cl` was run?
**A.** Non-Toxic

**Q.** `O=C(NCc1ccccc1Cl)[C@@H]1CCC(=O)N1c1ccccc1` was tested. Which Activity did it give?
**A.** Non-Toxic

System: UO-31
Experiment: Cytotoxicity against human UO31 cells assessed as effect on cell growth at 10 uM incubated for 48 hrs by sulforhodamine B assay
Format: cell-based
Settings: uo-31, 48 h

**Q.** How did the Activity turn out when `O=C(NCc1ccccc1)[C@@H]1CCC(=O)N1Cc1ccc(Cl)cc1Cl` was run?
**A.** Non-Toxic

**Q.** How did the Activity turn out when `O=C(NCc1ccccc1Cl)[C@@H]1CCC(=O)N1Cc1ccccc1Cl` was run?
**A.** Non-Toxic

**Q.** Which Activity does the source give for `O=C(NCc1ccccc1Cl)[C@@H]1CCC(=O)N1c1ccccc1` here?
**A.** Non-Toxic

System: DU-145
Experiment: Cytotoxicity against human DU145 cells assessed as effect on cell growth at 10 uM incubated for 48 hrs by sulforhodamine B assay
Format: cell-based
Settings: du-145, 48 h

**Q.** Which Activity does the source give for `O=C(NCc1ccccc1)[C@@H]1CCC(=O)N1Cc1ccc(Cl)cc1Cl` here?
**A.** Non-Toxic

**Q.** For `O=C(NCc1ccccc1Cl)[C@@H]1CCC(=O)N1Cc1ccccc1Cl`, which Activity is on record?
**A.** Non-Toxic

**Q.** For `O=C(NCc1ccccc1Cl)[C@@H]1CCC(=O)N1c1ccccc1`, which Activity is on record?
**A.** Non-Toxic
